Assay results published in PMC12067741, “Inhibition of SOD1 trimerization is a novel drug target for ALS disease” (Translational Neurodegeneration, 2025).

Test system: SOD1^G93A−Tg mice
Experiment: Efficacy of i.p. injection in SOD1G93A-Tg ALS mice
Format: in vivo
Details: for reduction of rotarod latency to fall at 16 weeks compared to 11 weeks: vehicle ~43%
Experimental: To evaluate the therapeutic effect of PRG-A-04, SOD1^G93A−Tg mice received intraperitoneal injection of vehicle (DMSO, n = 6) or PRG-A-04 (20 mg/kg, n = 4; 50 mg/kg, n = 6) twice per week from 11 weeks for 6–8 weeks. WT mice (n = 5) served as negative littermates of the SOD1^G93A−Tg mice. WT mice were treated in the same conditions.
For histology analysis, SOD1^G93A−Tg mice received intraperitoneal injections starting from 11 weeks and sacrificed at 17 weeks (vehicle, n = 3; PRG-A-04 20 mg/kg, n = 2, 50 mg/kg, n = 2) and 19 weeks (vehicle, n = 2; PRG-A-04 50 mg/kg, n = 2). WT male mice (n = 5) were sacrificed at 17 weeks. Mice were sacrificed by i.p. (intraperitoneal) injection of avertin at a volume of 150–200 μL. The spinal cord was obtained and fixed in 4% paraformaldehyde for 48 h and embedded in paraffin blocks. The embedded tissues (cervical region of the spinal cord) were sectioned at 5 µm by Accu-Cut ® SRMTM 200 Rotary Microtome (Sakura Finetek, Torrance, CA) and transferred onto adhesive-coated slides (Marienfeld Laboratory Glassware, Lauda-Königshofen, Germany). After deparaffin and rehydration, the slides were stained with hematoxylin and eosin (H&E) to detect spinal cord neurons. In addition, immunohistochemistry (IHC) with antibodies for neuronal markers MAP2 (ab32454, Abcam, Cambridge, UK) and NeuN (ab177487, Abcam) as well as for SOD1 (GTX100554, Genetex, Irvine, CA) was performed. The intensity of MAP2 and NeuN was calculated with the Image J software (version 1.54p, National Institute of Mental Health, MD). For counting intensity, IHC images were divided using the “color deconvolution” function in Image J software and the DAB signal was quantified.
Age-matched WT mice were tested as positive control. […] Mouse movement was recorded.
PRG-A-04 (20 mg/kg or 50 mg/kg) was injected intraperitoneally (i.p., twice a week) in 11-week-old SOD1^G93A−Tg mice to verify its efficacy in vivo (Fig. S4a). […] We performed the rotarod test to monitor muscle strength.
11 weeks old mice were injected with 20 mg/kg and 50 mg/kg, twice per week for 6~8 weeks and checked the motility with rotarod test. To check the histology analysis, some mouse groups were sacrificed and the spinal cord was isolated at 16 weeks and 18 weeks. b, […]
(d) The 11 weeks old mice were injected with PRG-A-04 for 6 weeks and sacrificed at 16 weeks. The cervical spinal cord was stained with H&E. Scale bar; […]. (e) Representative images […]
The tissue lysates were harvest with TNNI buffer and incubation for 30 min then fixed with 0.04% glutaraldehyde (Glu) for 30min. Samples were separated using SDS-PAGE. Arrow indicates human SOD1(hSOD1- […]
MAP2 (e) and the number of NeuN positive cells (f) were counted with Image J software.

For COc1cc(C=CCOC2Cc3cc4ccc(=O)oc4cc3OC2(C)C)ccc1[N+](=O)[O-] (stereo not shown) [PRG-A-04], the “reduction of rotarod latency to fall at 16 weeks compared to 11 weeks” value (i.p. 20 mg/kg twice a week from 11 weeks (first of 'respectively')) was 14.4%, the “reduction of rotarod latency to fall at 16 weeks compared to 11 weeks” value (i.p. 50 mg/kg twice a week from 11 weeks (second of 'respectively')) was 20.1% and the “motor function in open field test” value (i.p. 50 mg/kg, age of 18 weeks) was “significantly improved motor function”. The “SOD1 inclusion bodies in spinal cord” value (i.p. 20 and 50 mg/kg, immunohistochemistry) was “reduced SOD1 inclusion bodies”, the “toxicity regarding body weight loss” value (i.p. 20 or 50 mg/kg twice a week) was “no cytotoxicity regarding body weight loss” and the “number of neurons in cervical region of the spinal cord” value (i.p., histology at 16 weeks, versus vehicle) was “increased the number of neurons”. The “insolubility and oligomerization of SOD1 in spinal cord” value (i.p., western blotting of cervical spinal cord lysates) was “decrease of insolubility and oligomerization of SOD1”.
